The source made the active and inactive calls. The rule behind the calls is not given here.
Tests used:
[1] = molecular target: T1, Adrenergic receptor alpha-1 (Rattus norvegicus, UniProt P15823+P23944+P43140); assay: In vitro binding affinity determined for alpha-1 adrenergic receptor by the displacement of [3H]- prazosin.; assay type: protein assay
T1 sequence (P15823 whole entry): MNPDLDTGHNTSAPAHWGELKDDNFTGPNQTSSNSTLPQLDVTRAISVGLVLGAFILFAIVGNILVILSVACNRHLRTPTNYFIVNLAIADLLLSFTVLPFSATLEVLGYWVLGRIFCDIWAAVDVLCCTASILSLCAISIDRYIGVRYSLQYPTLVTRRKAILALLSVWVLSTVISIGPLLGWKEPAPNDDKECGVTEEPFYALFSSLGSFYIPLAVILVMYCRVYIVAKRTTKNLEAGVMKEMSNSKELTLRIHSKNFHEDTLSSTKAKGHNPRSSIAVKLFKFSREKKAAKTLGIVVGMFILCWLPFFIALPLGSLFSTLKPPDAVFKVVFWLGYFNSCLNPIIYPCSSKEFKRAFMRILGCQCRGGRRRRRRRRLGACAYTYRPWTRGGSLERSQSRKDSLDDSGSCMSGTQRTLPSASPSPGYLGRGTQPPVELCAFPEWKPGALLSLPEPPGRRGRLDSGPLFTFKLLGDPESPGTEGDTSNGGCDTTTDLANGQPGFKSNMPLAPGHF
T1 sequence (P23944 whole entry): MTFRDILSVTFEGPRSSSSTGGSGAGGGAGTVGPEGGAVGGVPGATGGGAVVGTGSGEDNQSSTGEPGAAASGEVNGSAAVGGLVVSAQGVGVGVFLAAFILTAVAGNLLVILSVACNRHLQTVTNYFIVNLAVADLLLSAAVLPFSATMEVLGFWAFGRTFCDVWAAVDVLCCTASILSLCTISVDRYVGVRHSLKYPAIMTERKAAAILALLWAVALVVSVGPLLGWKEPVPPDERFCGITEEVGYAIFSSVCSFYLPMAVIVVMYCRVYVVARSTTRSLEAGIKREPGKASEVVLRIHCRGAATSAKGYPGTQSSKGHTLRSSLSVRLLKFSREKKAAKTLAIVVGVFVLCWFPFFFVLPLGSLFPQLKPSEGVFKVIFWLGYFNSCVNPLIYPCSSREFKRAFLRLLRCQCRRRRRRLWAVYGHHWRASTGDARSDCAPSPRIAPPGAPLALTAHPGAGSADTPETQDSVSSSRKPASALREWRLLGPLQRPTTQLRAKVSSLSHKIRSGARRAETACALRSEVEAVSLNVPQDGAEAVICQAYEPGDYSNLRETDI
T1 sequence (P43140 whole entry): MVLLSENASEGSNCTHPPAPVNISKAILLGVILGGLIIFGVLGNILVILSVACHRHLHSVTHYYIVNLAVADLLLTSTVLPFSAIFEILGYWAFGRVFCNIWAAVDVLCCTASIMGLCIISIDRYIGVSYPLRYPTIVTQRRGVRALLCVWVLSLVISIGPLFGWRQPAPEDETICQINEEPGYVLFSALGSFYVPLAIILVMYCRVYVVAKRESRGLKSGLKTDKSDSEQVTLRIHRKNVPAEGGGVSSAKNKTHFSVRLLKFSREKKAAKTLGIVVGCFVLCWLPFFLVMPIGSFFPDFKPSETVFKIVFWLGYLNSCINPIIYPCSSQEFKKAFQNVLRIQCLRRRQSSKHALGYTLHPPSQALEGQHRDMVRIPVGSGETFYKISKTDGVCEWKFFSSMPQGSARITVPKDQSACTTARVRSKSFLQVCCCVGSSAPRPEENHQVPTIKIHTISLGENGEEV

[2] = molecular target: Adrenergic receptor alpha-2 (Rattus norvegicus) (UniProt P22086+P19328+P22909); assay: In vitro binding affinity determined for alpha-2 adrenergic receptor by the percentage displacement of [3H]- clonidine at 10e-6 M; Not active :Less than 50% activity.; assay type: protein assay
Rattus norvegicus = assay: Antihypertensive activity determined in spontaneously hypertensive rats(SHR) by percent reduction in blood pressure at 5 mg/kg peroral administration at 4 hour; assay type: functional; conditions: route oral
[3] = molecular target: Adrenergic receptor alpha; assay: Tested for functional alpha-antagonist activity against norepinephrine in rabbit aorta and pulmonary artery.; assay type: tissue-based, Oryctolagus cuniculus
[4] = tested on: Adrenergic receptor alpha-1 (Oryctolagus cuniculus)
[5] = tested on: Adrenergic receptor alpha-2 (Oryctolagus cuniculus); assay: Competitive antagonist activity of the pre junctional alpha-2 adrenergic receptor mediated vasoconstrictor action of norepinephrine expressed as concentration producing 40% reduction in contractile response at 10e-5 M; No activity

| Compound | Ki [1] | Displacement [2] | also measured |
| --- | --- | --- | --- |
| COc1cc2nc(N3CCC(C(=O)N(C)Cc4ccccc4)CC3)nc(N)c2cc1OC | 0.2 nM | – | – |
| COc1cc2nc(N3CCC(C(=O)NCC4CC4)CC3)nc(N)c2cc1OC | 0.9 nM | < 50% | – |
| CCN(CC)C(=O)C1CCN(c2nc(N)c3cc(OC)c(OC)cc3n2)CC1 | 1.11 nM | < 50% | – |
| CCN(CC)C(=O)C1CCCN(c2nc(N)c3cc(OC)c(OC)cc3n2)C1 (centres undefined) | 116.73 nM | < 50% | Reduction (Rattus norvegicus): 16% |
| COc1cc2nc(N3CCC(C(=O)NCc4ccccc4)CC3)nc(N)c2cc1OC | 0.22 nM | – | – |
| COc1cc2nc(N3CCC(C(=O)Nc4ccccc4)CC3)nc(N)c2cc1OC | 0.47 nM | < 50% | – |
| COc1cc2nc(N3CCC(C(=O)N4CCOCC4)CC3)nc(N)c2cc1OC | 1.14 nM | < 50% | – |
| COc1cc2nc(N3CCC(C(=O)NC4CCCC4)CC3)nc(N)c2cc1OC | 0.63 nM | < 50% | – |
| COc1cc2nc(N3CCC(C(=O)NCCOc4ccccc4)CC3)nc(N)c2cc1OC | 0.42 nM | – | – |
| COc1cc2nc(N3CCC(C(=O)NCCc4ccccc4)CC3)nc(N)c2cc1OC | 0.1 nM | – | – |

Further lines, with some results ahead:

| Ki [1] | Displacement [2] | Compound | also measured |
| --- | --- | --- | --- |
| 1.46 nM | – | COc1cc2nc(N3CCC(C(N)=O)CC3)nc(N)c2cc1OC | – |
| 0.79 nM | – | CCCCNC(=O)COC1CCN(c2nc(N)c3cc(OC)c(OC)cc3n2)CC1 | – |
| 0.67 nM | – | CCCCNC(=O)C1CCN(c2nc(N)c3cc(OC)c(OC)cc3n2)CC1 | – |
| 1.73 nM | < 50% | COc1cc2nc(N3CCC(C(=O)NCCO)CC3)nc(N)c2cc1OC | Reduction (Rattus norvegicus): 5% |
| 1.4 nM | – | CCCCNC(=O)CC1CCN(c2nc(N)c3cc(OC)c(OC)cc3n2)CC1 | – |
| 8.25 nM | < 50% | CCCCNC(=O)C1CCCN(c2nc(N)c3cc(OC)c(OC)cc3n2)C1 (centres undefined) | – |
| 1.13 nM | < 50% | COCCNC(=O)C1CCN(c2nc(N)c3cc(OC)c(OC)cc3n2)CC1 | – |
| 1.08 nM | – | COc1cc2nc(N3CCC(CC(=O)NCC4CC4)CC3)nc(N)c2cc1OC | pA2 [3]: 7.25; EC40 [4]: 97 nM; EC40 [5]: inactive |
| 0.47 nM | – | CCCCNC(=O)CCC1CCN(c2nc(N)c3cc(OC)c(OC)cc3n2)CC1 | – |
| 1.64 nM | < 50% | CCNC(=O)C1CCN(c2nc(N)c3cc(OC)c(OC)cc3n2)CC1 | – |
| 0.65 nM | – | CCCNC(=O)CC1CCN(c2nc(N)c3cc(OC)c(OC)cc3n2)CC1 | pA2 [3]: 7.42; EC40 [4]: 18 nM; EC40 [5]: inactive |

Reference: ChEMBL document CHEMBL1123772, “2,4-Diamino-6,7-dimethoxyquinazolines. 2. 2-(4-Carbamoylpiperidino) derivatives as alpha 1-adrenoceptor antagonists and antihypertensive agents” (J Med Chem, 1987)
